“And” between values parts separate entries of the source, which are not always exact repeats. Equal entries are not always repeated. Where two headings read alike, the source gives them in different places. Values belong to the compound of their own block, whether it stands above or below them.
Assays:
[1] = test system: liver microsomes from TCDD-treated hCYP1A1/1A2 mice; assay: EROD in liver microsomes from TCDD-treated hCYP1A1/1A2 mice: individual contribution of CYP1A1, CYP1A2 and non-Cyp1a; assay type: in vitro ADME, mouse
Description: (§1) Protein enzyme/concentrations were 3.46 pmol/ml for recombinant human CYP1A1, 10.8 pmol/ml for recombinant human CYP1A2, 0.05 mg protein/ml for liver microsomes from TCDD-treated hCYP1A1/1A2 mice, and 0.25 mg protein/ml for liver microsomes from TCDD-treated Cyp1 KO mice and vehicle-treated hCYP1A1/1A2 mice. Where needed, total protein concentration in the reaction mixtures was adjusted using Control Bactosomes (Cypex), so all reactions (including those with the recombinant cytochrome P450s) were carried out at a total protein concentration of 0.25 mg protein/ml. Generation of fluorescent product was registered in a kinetic mode (excitation filter, 530 nm; emission filter, 584 nm). Slopes of the linear part of the kinetic curves were calculated using Ascent Software version 2.4.1 (Labsystems). For each well with the reaction medium, there was a control well containing the reaction mixture with resorufin (40 pmol). Before addition of NADPH to the reaction wells, fluorescence was recorded both from the reaction and from the control wells. The average fluorescence was calculated, and the difference between wells with and without resorufin was used for the conversion of the relative fluorescence units to the picomoles of the reaction product.

liver microsomes = assay: Constitutive EROD and MROD activity in liver microsomes of WT, Cyp1a KO and hCYP1A1/1A2 mice; assay type: in vitro ADME, mouse
Description: A mixture of ER (0.93 μM) or MR (0.46 μM) and liver microsomes (0.004–0.27 mg protein/ml) in 100 mM potassium phosphate buffer (pH 7.4) supplemented with MgCl2 (3.3 mM) was incubated at 37°C for 5 minutes before the reaction was initiated by injection of NADPH (final concentration, 1.2 mM). […] Activities in duodenum, ileum, jejunum, colon, lung, kidney, spleen, heart, brain, and testis microsomes were measured as described earlier except for the following adjustments: MR concentration was 1 μM, concentration of total microsomal protein in the reaction was in the range of 0.07–0.43 mg/ml, and amount of resorufin added to calculate the reaction product concentration was 40 pmol.

recombinant human CYP1A2 [2] = biological target: T1, recombinant human CYP1A2 (Homo sapiens, UniProt P05177)
T1 sequence (P05177 1-516): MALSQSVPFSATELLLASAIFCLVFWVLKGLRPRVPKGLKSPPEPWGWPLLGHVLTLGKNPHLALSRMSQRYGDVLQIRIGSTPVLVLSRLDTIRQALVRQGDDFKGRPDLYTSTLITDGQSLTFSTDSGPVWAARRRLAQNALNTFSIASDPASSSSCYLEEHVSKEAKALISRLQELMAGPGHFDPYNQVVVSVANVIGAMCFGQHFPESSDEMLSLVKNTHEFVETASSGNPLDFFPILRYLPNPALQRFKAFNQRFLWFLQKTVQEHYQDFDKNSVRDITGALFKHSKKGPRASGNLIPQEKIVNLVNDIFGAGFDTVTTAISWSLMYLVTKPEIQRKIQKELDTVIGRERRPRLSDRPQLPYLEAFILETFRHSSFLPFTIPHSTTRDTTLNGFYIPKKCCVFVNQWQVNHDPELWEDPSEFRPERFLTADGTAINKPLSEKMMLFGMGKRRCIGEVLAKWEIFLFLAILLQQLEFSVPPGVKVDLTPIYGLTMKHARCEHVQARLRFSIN
Description: as §1

Recombinant rat CYP1A1 = test system: Recombinant rat CYP1A1; set-up: method as in Namkung et al., 1988; conditions: recombinant rat enzymes; ref Namkung et al., 1988; cited from earlier work
recombinant human CYP1A1 [3] = biological target: T2, recombinant human CYP1A1 (Homo sapiens, UniProt P04798); assay: EROD by recombinant human CYP1A1 with and without quinidine
T2 sequence (P04798 1-512): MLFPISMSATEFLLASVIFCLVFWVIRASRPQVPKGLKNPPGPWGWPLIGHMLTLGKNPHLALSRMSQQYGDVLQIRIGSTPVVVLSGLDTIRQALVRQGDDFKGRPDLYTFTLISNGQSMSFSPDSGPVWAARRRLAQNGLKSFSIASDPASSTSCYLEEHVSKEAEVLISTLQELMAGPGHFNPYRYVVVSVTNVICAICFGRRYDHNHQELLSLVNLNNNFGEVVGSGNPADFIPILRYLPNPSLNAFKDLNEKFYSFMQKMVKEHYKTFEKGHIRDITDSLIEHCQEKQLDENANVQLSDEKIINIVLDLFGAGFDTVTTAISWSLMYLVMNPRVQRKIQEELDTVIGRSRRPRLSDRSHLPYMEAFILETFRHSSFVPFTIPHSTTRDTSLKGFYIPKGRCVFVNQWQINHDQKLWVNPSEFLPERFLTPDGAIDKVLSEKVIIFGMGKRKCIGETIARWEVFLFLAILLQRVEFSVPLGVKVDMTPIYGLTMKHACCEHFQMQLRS
Description: (§2) Where needed, total protein concentration in the reaction mixtures was adjusted using Control Bactosomes (Cypex), so all reactions (including those with the recombinant cytochrome P450s) were carried out at a total protein concentration of 0.25 mg protein/ml. […] Slopes of the linear part of the kinetic curves were calculated using Ascent Software version 2.4.1 (Labsystems). For each well with the reaction medium, there was a control well containing the reaction mixture with resorufin (40 pmol). Before addition of NADPH to the reaction wells, fluorescence was recorded both from the reaction and from the control wells. The average fluorescence was calculated, and the difference between wells with and without resorufin was used for the conversion of the relative fluorescence units to the picomoles of the reaction product.

recombinant human CYP1A1 [4] = biological target: T2, recombinant human CYP1A1; set-up: host or cells: bacteria (membrane / 'bacterial microsomes' preparation); method as in Liu et al., 2004; conditions: recombinant human enzymes; ref Liu et al., 2004; cited from earlier work
[5] = test system: liver microsomes from TCDD-treated Cyp1a KO mice (non-Cyp1a component); assay: EROD in liver microsomes from TCDD-treated Cyp1a KO mice with and without quinidine
Description: as §1

[6] = test system: EROD activity of liver microsomes from vehicle-treated hCYP1A1/1A2 mice; assay: EROD in liver microsomes from vehicle-treated hCYP1A1/1A2 mice with quinidine; assay type: biochemical; conditions: hCYP1A1/1A2 humanized, mouse, pH 7.4
Description: as §1

[7] = test system: liver microsomes from vehicle-treated hCYP1A1/1A2 mice; assay: MROD in liver microsomes from vehicle-treated hCYP1A1/1A2 mice with quinidine; assay type: biochemical, mouse; conditions: 200 μM quinidine
Description: as §1

[8] = test system: EROD activity, non-Cyp1a component of the liver microsomes; assay: in vitro; conditions: mouse, pH 7.4
Description: as §1

[9] = test system: MROD activity, non-Cyp1a component of the liver microsomes; assay: in vitro; conditions: mouse, pH 7.4
Description: as §1

recombinant human CYP1A1 [10] = biological target: T2, recombinant human CYP1A1; assay: biochemical
Description: (§3) Slopes of the linear part of the kinetic curves were calculated using Ascent Software version 2.4.1 (Labsystems).
as §2

recombinant human CYP1A1 [11] = biological target: T2, recombinant human CYP1A1; assay: MROD by recombinant human CYP1A1, inhibition by quinidine; conditions: rCYP1A1
Description: as §3, §2

recombinant human CYP1A2 [12] = biological target: T1, recombinant human CYP1A2; assay: MROD by recombinant human CYP1A2, inhibition by quinidine; conditions: quinidine 0, 30, 200 μM
Description: as §3, §2

[13] = liver microsomes from TCDD-treated hCYP1A1/1A2 mice, nonlinear regression eq. 7
[14] = quinidine 200 μM, low concentration of ER

SMILES: CCOc1ccc2nc3ccc(=O)cc-3oc2c1 [ER, 7-ethoxyresorufin]
CYP1A1 contribution to EROD ([1]; absence of quinidine, 1 μM ER): 70%
CYP1A2 contribution to EROD ([1]; absence of quinidine, 6 μM ER): ~45%
CYP1A1 contribution to EROD ([1]; absence of quinidine, 6 μM substrate): ~51%
CYP1A1 contribution to EROD ([1]; absence of quinidine, low (10 pM) substrate concentration): ~94%
CYP1A2 contribution to EROD ([1]; absence of quinidine, low substrate concentration): ~4.8%
Vmax for CYP1A1, EROD [1, 13]: 2800 pmol/min/mg protein
Vmax for CYP1A2, EROD [1, 13]: 1900 pmol/min/mg protein and 1909 pmol/min/mg protein
CYP1A1 contribution to EROD [1, 14]: ~22%
CYP1A2 contribution to EROD [1, 14]: 70%
non-CYP1A contribution to EROD [1, 14]: 8%
decrease of EROD activity relative to WT animals (liver microsomes; liver microsomes from Cyp1a KO mice, untreated): 22%
constitutive EROD activity relative to WT (liver microsomes; liver microsomes from hCYP1A1/1A2 mice): 155%
Km (recombinant human CYP1A2 [2]; read-out: Km ± S.E., EROD, rCYP1A2): 1.2 µM
EROD activity of CYP1A1 compared to CYP1A2 (times more active) (Recombinant rat CYP1A1): ~59 times
Kd (recombinant human CYP1A1 [3]; read-out: Ks1 ± S.E., EROD, rCYP1A1, productive enzyme-substrate complex): 0.09 ± 0.008 µM
Kd (recombinant human CYP1A1 [3]; read-out: Ks2 ± S.E., EROD, rCYP1A1, inhibitory enzyme-substrate complex): 11 ± 1 µM
kcat (recombinant human CYP1A1 [3]; recombinant CYP1A1, Vmax 3300 at 71 pmol/mg protein): 0.783 s⁻¹
Vmax (recombinant human CYP1A1 [3]; recombinant CYP1A1, enzyme concentration 71 pmol/mg protein): 3300 pmol/min/mg protein
EROD activity of CYP1A1 compared with CYP1A2 (times more active) (recombinant human CYP1A1 [4]): ~2.8 times
Kd ([5]; read-out: Ks1 ± S.E.): 0.83 ± 0.04 µM
Kd ([5]; read-out: Ks2 ± S.E.): 13 ± 1.5 µM

inhibition at 200 μM [6]: ~20%
effect on MROD [7]: not affected
inhibition of EROD activity catalyzed by CYP1A2 (recombinant human CYP1A2 [2]; quinidine 0, 30, 200 μM): did not inhibit
Ki ([8]; Cyp1a KO): > 200 µM
Ki [8]: 422 ± 18 µM
Ki ([9]; Cyp1a KO): > 200 µM
Ki [9]: 272 ± 28 µM
IC50 (recombinant human CYP1A1 [10]): 5.8 µM
Ki (recombinant human CYP1A1 [10]): 2.2 ± 0.18 µM
Quinidine Inhibition Type (recombinant human CYP1A1 [11]): Competitive
inhibition of MROD activity catalyzed by CYP1A2 (recombinant human CYP1A2 [12]): did not inhibit
Ki (recombinant human CYP1A1 [3]): 3.3 ± 0.35 µM
Quinidine Inhibition Type (recombinant human CYP1A1 [3]; EROD, rCYP1A1): Mixed
α (recombinant human CYP1A1 [3]; EROD, rCYP1A1, effect of inhibitor binding on substrate binding): 31 ± 8
SMILES: C=C[C@H]1C[N@@]2CC[C@H]1C[C@@H]2[C@@H](O)c1ccnc2ccc(OC)cc12 [quinidine]
